# Assay results published in patent publication US7230096B2, “Inhibitors against galectins” (priority 2001, dated 2007).
# How the values were obtained:
# [1] = target: T1, recombinant human galectin-3 (Homo sapiens, UniProt P17931); experiment: Inhibition of galectin-3 binding to Galα3Galβ4GlcNAcβ-HRP conjugate (galectin-3 coated microwells); details: for IC50: competitive inhibition of Galα3Galβ4GlcNAcβ trisaccharide:HRP conjugate binding to galectin-3 coated microwells, five-fold serial dilutions; for Krel: ratio of IC50 of reference compound 25 and IC50 of the inhibitor
# T1 construct: made in house; host or cells: Escherichia coli
# T1 sequence (P17931 whole entry): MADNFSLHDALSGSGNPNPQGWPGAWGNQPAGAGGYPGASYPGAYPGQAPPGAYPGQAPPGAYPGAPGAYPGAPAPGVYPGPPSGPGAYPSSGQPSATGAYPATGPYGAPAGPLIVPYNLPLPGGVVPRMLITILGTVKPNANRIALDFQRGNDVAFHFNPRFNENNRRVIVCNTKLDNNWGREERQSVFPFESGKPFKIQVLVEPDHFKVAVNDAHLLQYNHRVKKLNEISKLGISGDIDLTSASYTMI
# Method: NMR-spectra were recorded with a Bruker DRX-400 instrument. Chemical shifts are given in ppm, with reference to internal CHCl3 (δ 7.26 ppm) or HDO (δ 4.81 ppm). Chemical shifts and coupling constants were obtained from ^1H-NMR and proton resonances were assigned from COSY experiments. High-resolution FAB mass spectra (HRMS) were recorded with a JEOL SX-120 instrument. MALDI-TOF Spectra were recorded with a Bruker, Biflex instrument. Column chromatography was performed on SiO2 (Matrex, 60 Å, 35–70 μm, Grace Amicon) and TLC was carried out on SiO2 60 F254 (Merck) with detection under UV light and developed with aqueous sulfuric acid. Concentrations were made using rotary evaporation with bath temperature at or below 40° C. CH2Cl2 and CH3CN were dried by distillation from CaH2. Pyridine was dried over 4 Å molecular sieves. DMF was distilled and dried over 4 Å molecular sieves. MeOH and EtOH were dried over 3 Å molecular sieves. Microwell plates were from Nalge Nunc International (Nunc-immuno plate, maxisorp surface). PBS containing 0.05% Tween 20 is abbreviated PBS-T and PBS-T containing 1% BSA is abbreviated PBSA-T. Recombinant human galectin-3 was produced in Escherichia coli and purified as previously described (S. M. Massa et al, 1993). […] Microwell plates were developed with a TMB-peroxidase substrate kit (BioRad 172–1066) according to the manufacturers recommendations.
# The compounds prepared above (12–24) were tested for their ability to inhibiting the binding of galectin-3 to a Galα3Galβ4GlcNAcβ trisaccharide:horseradish peroxidase conjugate.
# Screening experiments. […] The wells were washed with PBS-T after 1 hour incubation at room temperature; followed by development with the TMB-peroxidase substrate kit. The reaction was stopped after 60 min by addition of 1N sulfuric acid (100 μL/well) and optical density was read at 450 nm. Each experiment was conducted twice with each sample in duplicate. […] Microtiter plate wells were coated with recombinant galectin-3 (10 μg/ml, 50 μl/well) from E. coli at 4° C. overnight, then washed three times with PBS-T. The wells were blocked with PBSA-T (100 μl/well) for 1 hour at room temperature, followed by washing with PBS-T. To the first well was added 125 μL of inhibitors 16, 18–19and 25 (0.2 mM in PBS-T). A five-fold serial dilution was performed by transfering 25 μL from the first well to a second well containing 100 μL PBS-T, mixing, then transfering 25 μL from the second well to a third well also containing 100 μL PBS-T, and so on to the eight well from which 25 μL were discarded. The dilution series was done in duplicate. […] Incubation, washing, and detection was performed as described above. The data was analyzed with non-linear regression analysis using the program Kaleidagraph™ from Synergy Software.
# galectins = details: cited from earlier work
IC50 [1] [µM],Krel [1],"inhibition at 40 µM ([1]; 40 μM inhibitor concentration, screening experiment, read-out: Percent inhibition of Galα3Galβ4GlcNAcβ:HRP conjugate binding to galectin-3) [%]",Structure (SMILES),"affinity relative to lactose (times lower) (galectins; galectins, compared with lactose)",Kd (galectins; all galectins) [µM]
23,9,–,"CO[C@@H]1O[C@H](CO)[C@@H](O[C@@H]2O[C@H](CO)[C@H](O)[C@H](NC(=O)c3ccccc3)[C@H]2O)[C@H](O)[C@H]1NC(C)=O [Compound 16, methyl 2-acetamido-2-deoxy-4-O-(3-benzamido-3-deoxy-β-D-galactopyranosyl)-β-D-glucopyranoside]",–,–
4.8,41,–,"COc1c(F)c(F)c(C(=O)N[C@H]2[C@@H](O)[C@@H](CO)O[C@@H](O[C@H]3[C@H](O)[C@@H](NC(C)=O)[C@H](OC)O[C@@H]3CO)[C@@H]2O)c(F)c1F [Compound 18, methyl 2-acetamido-2-deoxy-4-O-(3-[4-methoxy-2,3,5,6-tetrafluorobenzamido]-3-deoxy-β-D-galactopyranosyl)-β-D-glucopyranoside]",–,–
11.2,18,–,"CO[C@@H]1O[C@H](CO)[C@@H](O[C@@H]2O[C@H](CO)[C@H](O)[C@H](NC(=O)c3c(F)c(F)c(F)c(F)c3C(=O)O)[C@H]2O)[C@H](O)[C@H]1NC(C)=O [Compound 19, methyl 2-acetamido-2-deoxy-4-O-(3-[2-carboxy-3,4,5,6-tetrafluorobenzamido]-3-deoxy-β-D-galactopyranosyl)-β-D-glucopyranoside]",–,–
199,1,13,"CO[C@@H]1O[C@H](CO)[C@@H](O[C@@H]2O[C@H](CO)[C@H](O)[C@H](O)[C@H]2O)[C@H](O)[C@H]1NC(C)=O [Compound 25, methyl 4-O-β-D-galactopyranosyl-2-acetamido-2-deoxy-β-D-glucopyranoside, reference compound]",–,–
–,–,–,O=C[C@H](O)[C@@H](O)[C@@H](O)[C@H](O)CO [D-galactose],50–100 times lower,–
–,–,–,OC[C@H]1O[C@@H](O[C@H]2[C@H](O)[C@@H](O)C(O)O[C@@H]2CO)[C@H](O)[C@@H](O)[C@H]1O (some centres unmarked) [lactose],–,500 to 1000
